Source: the supplement of paper PMC10307832

Columns and labels:
Assay in all cases: relative viability (nuclei count vs DMSO), 5 days (fraction); higher = more cells survive
Lapatinib + Foretinib = compound: CS(=O)(=O)CCNCc1ccc(-c2ccc3ncnc(Nc4ccc(OCc5cccc(F)c5)c(Cl)c4)c3c2)o1 [Lapatinib] + COc1cc2c(Oc3ccc(NC(=O)C4(C(=O)Nc5ccc(F)cc5)CC4)cc3F)ccnc2cc1OCCCN1CCOCC1 [Foretinib] (partner 0.25 µM)
Procedure, shortened: (§1)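 Each reported value is a median over duplicate plates. It expresses relative viability: treated-well nuclei count divided by vehicle-well nuclei count. Lung cancer cell lines in 1536-well plates were dosed by pin tool a day after seeding, alone with one drug or with a fixed anchor-drug dose plus five library-drug doses (not always all listed) in √10 steps, and nuclei were counted after 5 days.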

Lapatinib + AZD7762 = compound: CS(=O)(=O)CCNCc1ccc(-c2ccc3ncnc(Nc4ccc(OCc5cccc(F)c5)c(Cl)c4)c3c2)o1 [Lapatinib] + NC(=O)Nc1cc(-c2cccc(F)c2)sc1C(=O)N[C@H]1CCCNC1 [AZD7762] (partner 0.2 µM)
Procedure, shortened: as §1

Wnt-C59 + Navitoclax = compound: CC1=NC=CC(=C1)C2=CC=C(C=C2)CC(=O)NC3=CC=C(C=C3)C4=CN=CC=C4 [Wnt-C59] + CC1(C)CCC(c2ccc(Cl)cc2)=C(CN2CCN(c3ccc(C(=O)NS(=O)(=O)c4ccc(N[C@H](CCN5CCOCC5)CSc5ccccc5)c(S(=O)(=O)C(F)(F)F)c4)cc3)CC2)C1 [Navitoclax] (partner 0.5 µM)
Procedure, shortened: as §1

Lapatinib + Alpelisib = compound: CS(=O)(=O)CCNCc1ccc(-c2ccc3ncnc(Nc4ccc(OCc5cccc(F)c5)c(Cl)c4)c3c2)o1 [Lapatinib] + Cc1nc(NC(=O)N2CCC[C@H]2C(N)=O)sc1-c1ccnc(C(C)(C)C(F)(F)F)c1 [Alpelisib] (partner 2 µM)
Procedure, shortened: as §1

| Cell Line | relative viability (Lapatinib + Foretinib; first compound 0.02 µM) | relative viability (Lapatinib + Foretinib; first compound 0.06325 µM) | relative viability (Lapatinib + Foretinib; first compound 0.2 µM) | relative viability (Lapatinib + Foretinib; first compound 0.6325 µM) | relative viability (Lapatinib + Foretinib; first compound 2 µM) | relative viability (Lapatinib + AZD7762; first compound 0.02 µM) | relative viability (Lapatinib + AZD7762; first compound 0.06325 µM) | relative viability (Lapatinib + AZD7762; first compound 0.2 µM) | relative viability (Lapatinib + AZD7762; first compound 0.6325 µM) | relative viability (Lapatinib + AZD7762; first compound 2 µM) | relative viability (Wnt-C59 + Navitoclax; first compound 0.001 µM) | relative viability (Wnt-C59 + Navitoclax; first compound 0.01 µM) | relative viability (Wnt-C59 + Navitoclax; first compound 0.03162 µM) | relative viability (Wnt-C59 + Navitoclax; first compound 0.1 µM) | relative viability (Lapatinib + Alpelisib; first compound 0.02 µM) | relative viability (Lapatinib + Alpelisib; first compound 0.06325 µM) | relative viability (Lapatinib + Alpelisib; first compound 0.2 µM) | relative viability (Lapatinib + Alpelisib; first compound 0.6325 µM) | relative viability (Lapatinib + Alpelisib; first compound 2 µM) |
| --- | --- | --- | --- | --- | --- | --- | --- | --- | --- | --- | --- | --- | --- | --- | --- | --- | --- | --- | --- |
| RERF-LC-KJ | 0.887 | 0.794 | 0.924 | 0.85 | 0.759 | 0.391 | 0.936 | 0.717 | 0.877 | 0.707 | 0.899 | 0.908 | 1.01 | 1.31 | 0.729 | 0.463 | 0.673 | 0.655 | 0.468 |
| HCC-827 | 1.08 | 0.974 | 1.05 | 0.97 | 0.155 | 0.172 | 0.299 | 0.129 | 0.19 | 0.103 | 1.08 | 1.04 | 1.04 | 1.02 | 0.89 | 0.957 | 0.957 | 0.914 | 0.434 |
| NCI-H1944 | 0.836 | 0.637 | 0.745 | 0.723 | 0.537 | 0.504 | 0.453 | 0.51 | 0.47 | 0.379 | 1.06 | 0.96 | 1.07 | 0.964 | – | – | 0.645 | 0.647 | 0.488 |
| HARA | – | 0.593 | 0.843 | 0.631 | 0.401 | 0.174 | 0.379 | 0.51 | 0.344 | 0.247 | 1.18 | 1.17 | 1.17 | 1.13 | 0.739 | 0.573 | 0.593 | 0.625 | 0.288 |
| NCI-H460 | 0.923 | 1 | 0.998 | 0.966 | 0.69 | – | 0.62 | 0.679 | 0.537 | 0.387 | 0.968 | 1.18 | 1.11 | 1.04 | 0.415 | 0.362 | 0.448 | 0.389 | 0.4 |
| HCC-366 | – | 0.86 | 0.887 | 0.912 | 0.89 | – | 0.245 | 0.205 | 0.247 | 0.133 | 1.06 | 0.926 | 0.932 | 1.01 | – | 0.282 | 0.381 | 0.446 | 0.242 |
| LOU-NH91 | 0.902 | 0.815 | 0.689 | 0.604 | 0.498 | 0.76 | 0.58 | 0.696 | 0.703 | 0.599 | 0.823 | 0.573 | 0.638 | 0.713 | 0.661 | 0.557 | 0.533 | 0.508 | 0.472 |
| NCI-H727 | 0.617 | – | 0.673 | 0.708 | 0.691 | 0.634 | – | 0.443 | 0.551 | 0.395 | 0.554 | 0.542 | 0.459 | 0.451 | 0.515 | 0.484 | 0.472 | 0.558 | 0.366 |
| LK-2 | – | – | 1.39 | 1.42 | 1.07 | 0.393 | – | 0.379 | – | 0.636 | 0.884 | 0.972 | 1.02 | 0.868 | – | – | 0.938 | 1.13 | 1.01 |
| NCI-H322M | 1.04 | 0.809 | 0.944 | 0.911 | 0.611 | 0.557 | 0.538 | 0.536 | 0.475 | 0.454 | 1.21 | 1.05 | 0.978 | 0.993 | 0.776 | 0.669 | 0.808 | 0.73 | 0.773 |
| NCI-H596 | – | 0.832 | 0.756 | 0.835 | 0.789 | – | 0.878 | 0.939 | 1.1 | 0.819 | 1.04 | 0.802 | 1.05 | 1.05 | 0.481 | 0.48 | 0.425 | 0.554 | 0.446 |
| PC-3 [JPC-3] | 1.04 | 0.989 | 1.03 | 1.09 | 0.471 | – | 0.477 | – | 0.655 | 0.414 | 0.868 | 0.815 | 0.933 | 0.809 | – | 1.04 | 1.02 | 0.988 | 0.585 |
| NCI-H1355 | – | 0.795 | 0.94 | 0.93 | 0.657 | 0.674 | 0.627 | 0.72 | 0.753 | 0.549 | 1.01 | 0.876 | 0.905 | 0.88 | – | 0.621 | 0.734 | 0.762 | 0.416 |
| 201T | 1.18 | – | 1.03 | 1.03 | 0.76 | 0.513 | 0.585 | 0.601 | 0.591 | 0.608 | 1.21 | 1.2 | 1.19 | 1.2 | 0.998 | 0.834 | 0.993 | 1 | 0.943 |
| NCI-H1703 | 0.305 | 0.347 | 0.296 | 0.299 | 0.388 | – | 0.119 | – | 0.121 | 0.113 | 1.45 | 1.39 | 1.08 | 1.08 | 0.289 | 0.33 | 0.325 | 0.398 | 0.343 |
| HCC-15 | – | 0.812 | 1.02 | 0.949 | 0.971 | – | 1.09 | 1.24 | 1.24 | 1.16 | 0.799 | 0.708 | 0.7 | 0.76 | – | 0.799 | 0.843 | 0.857 | 0.797 |
